The target in data set [1] is T1, Estrogen-related receptor gamma (Homo sapiens, UniProt P62508).
T1 sequence (P62508 whole entry): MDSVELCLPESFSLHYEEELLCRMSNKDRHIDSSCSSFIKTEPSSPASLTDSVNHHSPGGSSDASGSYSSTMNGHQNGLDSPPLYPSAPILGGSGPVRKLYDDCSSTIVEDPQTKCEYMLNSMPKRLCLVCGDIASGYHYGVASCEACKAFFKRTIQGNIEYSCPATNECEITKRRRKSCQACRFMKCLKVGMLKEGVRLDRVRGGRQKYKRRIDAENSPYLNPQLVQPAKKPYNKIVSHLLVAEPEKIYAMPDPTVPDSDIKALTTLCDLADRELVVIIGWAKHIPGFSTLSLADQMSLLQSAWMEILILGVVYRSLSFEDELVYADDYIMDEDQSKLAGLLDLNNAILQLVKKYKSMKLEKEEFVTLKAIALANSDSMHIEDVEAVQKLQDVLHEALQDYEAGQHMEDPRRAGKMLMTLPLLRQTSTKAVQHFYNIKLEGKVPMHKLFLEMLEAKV
Description: Inhibition of fluorescien-conjugated coactivator PGC1a binding to GST-tagged human ERRgamma LBD after 1 hr by TR-FRET assay

Data set [2] has as its target CYP2D6 (Homo sapiens, UniProt P10635). Kind of data set: Inhibition of CYP2D6 in human liver microsomes assessed as remaining activity by measuring dextromethorphan O-demethylase activity at 10 uM pre-incubated for 5 mins followed by NADPH regenerating system addition by LC-MS/MS analysis relative to control. The format is ADME. The conditions noted are these: probe dextromethorphan (O-demethylation), read-out: Activity. For orientation: Liver microsomes are a subcellular fraction often used to study metabolism.

Data set [3] concerns the target CYP2C19 (Homo sapiens, UniProt P33261). Kind of data set: Inhibition of CYP2C19 in human liver microsomes assessed as remaining activity by measuring S-mephenytoin 4-hydroxylase activity at 10 uM pre-incubated for 5 mins followed by NADPH regenerating system addition by LC-MS/MS analysis relative to control. The data set is classed as ADME. The conditions noted are these: probe S-mephenytoin (4-hydroxylation), read-out: Activity.

Data set [4] addresses T1, Estrogen-related receptor gamma. This is another data set of the same source.
Description: Inverse agonist activity at ERRgamma (unknown origin) expressed in human AD293 cells after 24 hrs by beta-galactosidase/luciferase reporter gene assay
The target in data set [5] is T2, Steroid hormone receptor ERR2 (Homo sapiens, UniProt O95718).
T2 sequence (O95718 whole entry): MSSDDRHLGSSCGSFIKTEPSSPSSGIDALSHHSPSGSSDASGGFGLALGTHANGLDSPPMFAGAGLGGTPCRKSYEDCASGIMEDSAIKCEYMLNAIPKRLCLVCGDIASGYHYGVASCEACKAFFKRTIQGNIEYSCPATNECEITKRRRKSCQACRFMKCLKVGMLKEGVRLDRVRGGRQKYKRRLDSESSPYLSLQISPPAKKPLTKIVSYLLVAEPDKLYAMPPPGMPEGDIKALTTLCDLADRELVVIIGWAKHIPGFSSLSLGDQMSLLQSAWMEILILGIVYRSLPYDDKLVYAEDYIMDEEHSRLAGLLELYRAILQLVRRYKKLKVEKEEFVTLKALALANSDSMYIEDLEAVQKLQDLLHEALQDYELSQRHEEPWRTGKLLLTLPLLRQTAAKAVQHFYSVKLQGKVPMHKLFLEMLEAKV
Kind of data set: Inhibition of fluorescien-conjugated coactivator PGC1a binding to ERRbeta (unknown origin) after 1 hr by TR-FRET assay. (In TR-FRET formats the signal depends on donor and acceptor labels being close together.)

For data set [6], the target named is T3, CYP1A2 (Homo sapiens, UniProt P05177).
T3 sequence (P05177 whole entry): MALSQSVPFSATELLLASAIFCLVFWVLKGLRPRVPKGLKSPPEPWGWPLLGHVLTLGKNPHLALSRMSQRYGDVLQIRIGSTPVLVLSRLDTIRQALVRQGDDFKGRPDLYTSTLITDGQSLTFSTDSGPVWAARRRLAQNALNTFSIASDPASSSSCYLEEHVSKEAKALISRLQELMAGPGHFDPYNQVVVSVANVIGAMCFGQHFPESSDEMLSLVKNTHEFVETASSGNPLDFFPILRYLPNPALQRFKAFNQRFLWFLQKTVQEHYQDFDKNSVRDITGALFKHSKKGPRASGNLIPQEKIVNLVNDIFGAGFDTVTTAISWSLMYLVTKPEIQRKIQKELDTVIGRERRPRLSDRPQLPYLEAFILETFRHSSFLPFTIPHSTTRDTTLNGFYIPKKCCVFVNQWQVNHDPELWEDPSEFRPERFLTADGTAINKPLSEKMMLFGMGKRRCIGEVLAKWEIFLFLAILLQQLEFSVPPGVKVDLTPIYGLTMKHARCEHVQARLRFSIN
Kind of data set: Inhibition of CYP1A2 in human liver microsomes assessed as remaining activity by measuring phenacetin O-deethylase activity at 10 uM pre-incubated for 5 mins followed by NADPH regenerating system addition by LC-MS/MS analysis relative to control. The conditions noted are these: probe phenacetin (O-deethylation), read-out: Activity. The format is ADME.

Data set [7] can be described thus: in vitro. The following applies: human, liver microsomes.
Description: Metabolic stability in human liver microsomes assessed as compound remaining at 1 uM after 30 mins in presence of NADPH by LC-MS/MS analysis
Data set [8] is described as follows: in vitro. The conditions noted are these: rat, liver microsomes.
Description: Metabolic stability in rat liver microsomes assessed as compound remaining at 1 uM after 30 mins in presence of NADPH by LC-MS/MS analysis
Data set [9] can be described thus: Permeability of the compound in PBS at pH 7.4 at 10 uM after 5 hrs by LC-MS/MS analysis. The data set is classed as ADME. The following applies: not told, read-out: permeability.
Data set [10] can be described thus: Metabolic stability in dog liver microsomes assessed as compound remaining at 1 uM after 30 mins in presence of NADPH by LC-MS/MS analysis. The format is ADME, Canis lupus familiaris. The conditions noted are these: read-out: Stability.
Data set [11] is described as follows: in vitro. The conditions noted are these: mouse, liver microsomes.
Description: Metabolic stability in mouse liver microsomes assessed as compound remaining at 1 uM after 30 mins in presence of NADPH by LC-MS/MS analysis
For data set [12], the target named is CYP2C9 (Homo sapiens, UniProt P11712). Kind of data set: Inhibition of CYP2C9 in human liver microsomes assessed as remaining activity by measuring tolbutamide 4-hydroxylase activity at 10 uM pre-incubated for 5 mins followed by NADPH regenerating system addition by LC-MS/MS analysis relative to control. The data set is classed as ADME. The conditions noted are these: probe tolbutamide (4-hydroxylation), read-out: Activity.
Chain of CYP2C9 (P11712 whole entry): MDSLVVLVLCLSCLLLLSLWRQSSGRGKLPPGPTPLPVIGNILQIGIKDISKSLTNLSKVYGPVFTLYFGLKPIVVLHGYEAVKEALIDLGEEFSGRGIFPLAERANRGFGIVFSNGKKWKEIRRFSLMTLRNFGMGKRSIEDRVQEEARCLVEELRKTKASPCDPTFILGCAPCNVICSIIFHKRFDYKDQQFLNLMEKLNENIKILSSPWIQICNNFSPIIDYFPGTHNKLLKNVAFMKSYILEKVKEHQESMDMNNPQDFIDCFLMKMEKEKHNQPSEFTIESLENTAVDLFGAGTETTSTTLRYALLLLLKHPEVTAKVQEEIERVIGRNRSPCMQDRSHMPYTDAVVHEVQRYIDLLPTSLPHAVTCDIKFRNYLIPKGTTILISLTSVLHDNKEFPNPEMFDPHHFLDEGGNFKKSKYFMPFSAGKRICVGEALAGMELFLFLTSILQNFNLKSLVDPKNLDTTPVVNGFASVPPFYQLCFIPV

For data set [13], the target named is T4, Steroid hormone receptor ERR1 (Homo sapiens, UniProt P11474).
T4 sequence (P11474 whole entry): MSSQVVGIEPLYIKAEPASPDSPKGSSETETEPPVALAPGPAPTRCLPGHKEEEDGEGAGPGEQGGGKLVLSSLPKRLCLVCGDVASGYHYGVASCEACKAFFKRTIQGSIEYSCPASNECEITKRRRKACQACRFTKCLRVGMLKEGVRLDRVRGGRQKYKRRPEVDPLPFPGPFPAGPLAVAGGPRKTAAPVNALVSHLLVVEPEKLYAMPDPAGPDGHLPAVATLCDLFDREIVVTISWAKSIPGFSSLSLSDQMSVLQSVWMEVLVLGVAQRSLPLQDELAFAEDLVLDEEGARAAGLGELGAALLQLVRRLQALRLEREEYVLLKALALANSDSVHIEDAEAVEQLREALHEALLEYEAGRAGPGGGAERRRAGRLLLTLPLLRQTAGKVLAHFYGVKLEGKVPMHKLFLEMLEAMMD
Kind of data set: Inhibition of fluorescien-conjugated coactivator PGC1a binding to ERRalpha (unknown origin) after 1 hr by TR-FRET assay.

Data set [14] has as its target CYP3A4 (Homo sapiens, UniProt P08684). Kind of data set: Inhibition of CYP3A4 in human liver microsomes assessed as remaining activity by measuring midazolam 1'-hydroxylase activity at 10 uM pre-incubated for 5 mins followed by NADPH regenerating system addition by LC-MS/MS analysis relative to control. The data set is classed as ADME. The conditions noted are these: probe midazolam (1'-hydroxylation), read-out: Activity.

Molecules are shown by their SMILES. pIC50: −log10 of the molar value. Bounds are passed on as bounds.

The values below come from ChEMBL document CHEMBL3856205, “Synthesis and biological evaluation of novel 4-hydroxytamoxifen analogs as estrogen-related receptor gamma inverse agonists” (Eur J Med Chem, 2016).

Chain of CYP2C19 (P33261 whole entry): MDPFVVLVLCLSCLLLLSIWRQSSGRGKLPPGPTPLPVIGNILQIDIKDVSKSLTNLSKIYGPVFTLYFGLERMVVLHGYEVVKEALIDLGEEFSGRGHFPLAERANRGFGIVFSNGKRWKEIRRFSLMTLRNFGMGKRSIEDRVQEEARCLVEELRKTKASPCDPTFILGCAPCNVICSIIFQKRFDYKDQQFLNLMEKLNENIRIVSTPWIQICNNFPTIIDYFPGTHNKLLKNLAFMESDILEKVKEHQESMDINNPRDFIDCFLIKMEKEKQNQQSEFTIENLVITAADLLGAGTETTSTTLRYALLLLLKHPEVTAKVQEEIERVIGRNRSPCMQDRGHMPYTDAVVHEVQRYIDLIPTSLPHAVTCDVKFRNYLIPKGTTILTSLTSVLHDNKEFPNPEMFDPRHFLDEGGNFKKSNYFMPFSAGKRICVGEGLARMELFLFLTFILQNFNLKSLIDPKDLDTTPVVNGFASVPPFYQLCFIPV
Chain of CYP2D6 (P10635 whole entry): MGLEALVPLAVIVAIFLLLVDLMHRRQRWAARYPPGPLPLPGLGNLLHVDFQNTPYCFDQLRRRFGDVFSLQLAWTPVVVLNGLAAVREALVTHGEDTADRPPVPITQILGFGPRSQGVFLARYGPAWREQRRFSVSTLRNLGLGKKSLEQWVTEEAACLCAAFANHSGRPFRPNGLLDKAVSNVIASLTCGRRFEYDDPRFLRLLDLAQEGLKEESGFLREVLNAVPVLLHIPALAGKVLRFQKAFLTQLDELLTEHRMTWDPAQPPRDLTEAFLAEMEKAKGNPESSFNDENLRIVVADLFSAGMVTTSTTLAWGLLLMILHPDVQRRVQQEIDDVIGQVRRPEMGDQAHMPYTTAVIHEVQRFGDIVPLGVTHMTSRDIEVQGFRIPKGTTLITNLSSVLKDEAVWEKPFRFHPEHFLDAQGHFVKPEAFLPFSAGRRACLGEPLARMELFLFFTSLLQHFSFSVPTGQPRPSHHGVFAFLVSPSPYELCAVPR
Chain of CYP3A4 (P08684 whole entry): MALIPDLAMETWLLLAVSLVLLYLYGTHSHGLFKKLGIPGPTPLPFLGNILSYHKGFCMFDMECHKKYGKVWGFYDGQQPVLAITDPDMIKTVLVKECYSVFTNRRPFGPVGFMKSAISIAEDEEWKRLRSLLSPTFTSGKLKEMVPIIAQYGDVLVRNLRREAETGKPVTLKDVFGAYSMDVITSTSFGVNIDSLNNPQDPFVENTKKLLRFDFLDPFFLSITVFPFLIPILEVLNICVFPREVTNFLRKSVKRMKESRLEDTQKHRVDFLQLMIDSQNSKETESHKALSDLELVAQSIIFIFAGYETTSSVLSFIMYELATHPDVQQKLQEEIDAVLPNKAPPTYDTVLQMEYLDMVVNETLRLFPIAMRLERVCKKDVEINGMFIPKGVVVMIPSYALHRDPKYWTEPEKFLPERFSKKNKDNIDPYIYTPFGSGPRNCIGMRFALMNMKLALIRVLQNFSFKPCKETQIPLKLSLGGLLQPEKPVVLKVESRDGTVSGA

Regarding `COc1ccc(/C(=C(\CCCO)c2ccc3cnn(C)c3c2)c2ccc(OCCN(C)C)cc2)cc1`, the negative logarithm of the IC50 (pIC50) (in general, −log10 of the IC50, conventionally taken in molar units) in data set [1] was less than 5.00.

In data set [1], `CN(C)CCOc1ccc(/C(=C(/CCCO)c2ccccc2)c2ccc(F)cc2)cc1` gave a pIC50 of 5.41.

For `Cc1ccc(/C(=C(\CCCO)c2cccnc2)c2ccc(OCCN(C)C)cc2)cc1`, in data set [1], the pIC50 is less than 5.00.

Take `CN(C)CCOc1ccc(/C(=C(/CCCO)c2ccc3cnn(C)c3c2)c2ccc(Br)cc2)cc1`: the pIC50 in data set [1] is 5.28.

As to `CN(C)CCOc1ccc(/C(=C(/CCC(F)F)c2ccccc2)c2ccc(O)cc2)cc1.Cl`, the activity at 10 µM in data set [2] was 12%; in data set [3], 11%; in [6], 14%; in [12], 60%; in [14], 11%. Further, the pIC50 was 6.95 in data set [4], less than 5.00 in [5] and 5.09 in data set [13]. Further, the remaining at 0.5 h, 1 µM came out at 77% in [7], 66% in data set [8], 73% in data set [10] and 91% in data set [11]. Further, the Papp at 5 h, 10 µM in [9] was 0.54 ×10⁻⁶ cm/s.

In [1], `CN(C)CCOc1ccc(/C(=C(/CCCO)c2ccccc2)c2ccc(C(F)(F)F)cc2)cc1` showed a pIC50 of 5.89.

In [1], `COc1ccc(/C(=C(\CCCO)c2ccccc2)c2ccc(OCCN(C)C)cc2)cc1` gave a pIC50 of 6.00.

With `CN(C)CCOc1ccc(/C(=C(/CCCO)c2ccccc2)c2ccc(S(C)(=O)=O)cc2)cc1`, the pIC50 in data set [1] was less than 5.00.

In the case of `CN(C)CCOc1ccc(/C(=C(/CCCO)c2ccccc2)c2ccncc2)cc1`, the pIC50 in data set [1] is less than 5.00.

In [1], `CN(C)CCOc1ccc(/C(=C(/CCCO)c2cccc(F)c2)c2ccc(Br)cc2)cc1` had a pIC50 of 5.96.

In turn, `CN(C)CCOc1ccc(/C(=C(/CCCO)c2ccccc2)c2cccnc2)cc1` gave a pIC50 in data set [1] of less than 5.00.

For `CN(C)CCOc1ccc(/C(=C(/CCCO)c2ccccc2)c2ccccc2)cc1`, the pIC50 in data set [1] is 5.82.

In [1], `CN(C)CCOc1ccc(/C(=C(/CCCO)c2cccnc2)c2ccc(Br)cc2)cc1` had a pIC50 of less than 5.00.

`CN(C)CCOc1ccc(/C(=C(/CCCO)c2cccnc2)c2ccccc2)cc1` showed a pIC50 in data set [1] of less than 5.00.

In data set [1], `CN(C)CCOc1ccc(/C(=C(/CCC(F)F)c2ccccc2)c2ccc(Br)cc2)cc1` gave a pIC50 of 6.05.

Regarding `CN(C)CCOc1ccc(/C(=C(/CCCF)c2ccccc2)c2ccc(Br)cc2)cc1`, the pIC50 in data set [1] is 6.32.

For `Cc1ccc(/C(=C(\CCCO)c2cccc(F)c2)c2ccc(OCCN(C)C)cc2)cc1`, the pIC50 in [1] is 6.30.

Regarding `CN(C)CCOc1ccc(/C(=C(/CCCF)c2ccccc2)c2ccc(O)cc2)cc1.Cl`, the activity at 10 µM was greater than 100% in [2]; 72% in data set [3]; greater than 100% in data set [6]; 99% in [12]; 93% in [14]. Further, the pIC50 is 7.32 in [4], 6.14 in data set [5], 7.70 in data set [1] and 5.10 in data set [13]. For the same compound, the remaining at 0.5 h, 1 µM in data set [7] was 72%; in data set [8], 35%; in [10], 21%; in data set [11] it was 24%. Also, the Papp at 5 h, 10 µM in [9] was found to be 2.12 ×10⁻⁶ cm/s.

For `CN(C)CCOc1ccc(/C(=C(/CCCO)c2ccccc2)c2ccc(Cl)cc2)cc1`, in [1], the pIC50 was 6.28.

Take `CN(C)CCOc1ccc(/C(=C(/CCCO)c2ccccc2)c2ccc(C#N)cc2)cc1`: the pIC50 in data set [1] was less than 5.00.

`Cc1ccc(/C(=C(\CCCO)c2ccc3cnn(C)c3c2)c2ccc(OCCN(C)C)cc2)cc1` had a negative logarithm of the IC50 (pIC50) in data set [1] of 5.25.

With `CN(C)CCCOc1ccc(/C(=C(/CCCO)c2ccccc2)c2ccc(O)cc2)cc1.Cl`, the activity at 10 µM is 93% in data set [2]; 64% in data set [3]; 96% in data set [6]; 90% in data set [12]; 79% in [14]. Also, the pIC50 is 7.24 in [4], less than 5.00 in data set [5], 7.05 in data set [1] and less than 5.00 in [13]. Moreover, the remaining at 0.5 h, 1 µM in data set [7] came out at 72%; in data set [8] it was 19%; in data set [10] it was 19%; in data set [11] it was 13%. For the same compound, in data set [9], the Papp at 5 h, 10 µM amounted to 0.36 ×10⁻⁶ cm/s.

Turning to `CN(C)CCOc1ccc(/C(=C(/CCCO)c2ccccc2)c2ccc(F)cc2F)cc1`, the pIC50 in data set [1] is 5.17.

On to `CN(C)CCOc1ccc(/C(=C(/CCCO)c2ccccc2)c2ccc(O)cc2)cc1.Cl`, for which the activity at 10 µM was found to be 82% in [2]; 78% in data set [3]; 84% in data set [6]; 73% in data set [12]; 83% in data set [14]. Moreover, the remaining at 0.5 h, 1 µM in data set [7] turned out to be 43%; in data set [8], 26%. Moreover, the Papp at 5 h, 10 µM in data set [9] was determined as 0.43 ×10⁻⁶ cm/s.
